Test results: patent publication US20120100229A1, “Treatment and Prevention of White Matter Injury with KATP Channel Activators” (Yale University, priority 2009, published 2012)

Experiments:
[1] = test system: pre-oligodendrocytes; test: Pre-oligodendrocyte proliferation, CyQUANT NF Cell Proliferation assay; format: cell-based, rat; details: for IC50: exposure 72-96 h, 1 nM to 100 μM, cellular DNA content fluorescence
Protocol: Purified oligodendrocyte progenitor cell cultures were prepared as described (Othman et al., 2003, Glia 44:166-172). In brief, primary rat mixed glial cell cultures were isolated from whole brains of postnatal day (P) 1 rats, dissociated into single cells, and cultured into poly-D-lysine (PDL, Sigma-Aldrich, St. Louis, Mo.) coated T75 tissue culture flasks. Plating medium consisted of Dulbecco's modified Eagle's medium (DMEM, Invitrogen, Carlsbad, Calif.) supplemented with 10% fetal bovine serum (FBS; InVitrogen, Carlsbad, Calif.), 2 mM L-glutamine, […]. Tissue cultures were maintained at 37° C. in a humidified 5% CO2 incubator, and medium was exchanged every 3 days. Once confluent (after 7-9 days), microglia were separated by mechanical shaking of flasks on a rotary shaker for 60 min at 200 rpm and removed. After addition of fresh medium, the remaining cells were allowed to recover overnight before repeating the mechanical shaking for an additional 16 h at 200 rpm to isolate oligodendrocyte progenitor cells. To ensure purity of oligodendrocyte progenitor cell cultures, the isolated cells were transferred to a tissue culture dish, from which the loosely attached oligodendrocyte progenitor cells were detached by gentle shaking after 60 min, leaving behind attached microglia and astrocytes. Oligodendrocyte progenitor cells were plated onto PDL coated 96 well plates using an automated dispenser and allowed to adhere to the plates over the next 1-2 days. This procedure yielded 98% A2B5-positive (OPC marker), and 2% MBP-positive (mature OL marker) cells. GFAP-positive (astrocyte marker) or O22A-positive (microglia marker) cells could not be detected in cultures prepared in this manner.
Cells were exposed to various KATP channel stimulators, with concentrations of compounds ranging from 1 nM to 100 μM, for 72-96 h. Pre-oligodendrocytes were cultured in 384-well plates, at a concentration of 10,000 cells per well. Cultures were washed two times with DMEM to remove any residual serum and then the respective solutions of KATP channel activators were added daily in an incubation buffer of DMEM with 0.5% FBS+10 μg/ml biotin and N2 supplement. Cells were then placed at 37° C. in a humidified atmosphere containing 5% CO2. All concentrations were tested in triplicate and each study was repeated twice.
To evaluate cell proliferation in response to KATP channel stimulators, the CyQUANT® NF Cell Proliferation assay (Invitrogen, Carlsbad, Calif.) was used according to the manufacturer's instructions. This assay measured cellular DNA content as a direct index of cell proliferation. Since cellular DNA content is highly proportional to cell number, this is a very accurate way to assess cell proliferation specifically. At the end of drug exposure, medium was removed and a stock solution of the green-fluorescent CyQUANT GR dye (prepared according to manufacturer's instructions) was added. […] Fluorescence was measured using an Envision Multilabel reader (Perkin-Elmer; Excitation: 480 nm, Emission: 530 nm).

[2] = test system: C57BL/6 mice; test: Hypoxia-induced periventricular white matter injury in neonatal mice; format: in vivo, mouse; details: for myelin basic protein-labeling (myelination): vs vehicle
Protocol: The effect of diazoxide in hypoxia-induced periventricular white matter injury was assessed. C57BL/6 mice were reared in […] 10% O2 from P3 to P12. Pups were treated with daily injection of either diazoxide or vehicle, with at least eight animals in each treatment group. Mice were weighed every two days. At P12, brains were removed. Ventricle size and myelin basic protein (MBP) labeling were assessed. C57BL/6 mice were exposed to low or normal oxygen conditions from P3-P12 (Turner et al., 2003, Proc. Natl. Acad. Sci. USA 100:11718-11722). In brief, litters of pups (P3) were placed with the dam in a Plexiglas chamber, in which oxygen levels were maintained at 9.5±1.0%, O2 levels were continuously monitored using a Cameron Instrument (Ontario, Canada) dual channel oxygen monitor attached to O2 electrodes placed at each end of the chamber. Control animals were kept in room air (˜22%) outside the Plexiglas chamber. Animals were removed from the chamber daily for less than 15 min to allow for diazoxide (10 mg/kg i.p.) or vehicle administration, as well as observation of weight gain. Mice were euthanized at P12, brains were harvested and shock frozen in ice cold (−20° C.) 2-methylbutane and stored at −80° C. until assessment of ventricular size or MBP immunocytochemistry (see below). At least eight animals were studied in each treatment group. Ventricle size was determined as reported (Turner et al., 2003, Proc. Natl. Acad. Sci. USA 100:11718-11722). Animals were weighed, anesthetized, and decapitated. Brains were shock frozen in ice cold (−20° C.) 2-methylbutane and stored at −80° C. Coronal sections spanning the brain were cut in a cryostat at a thickness of 16 μm in a Zeiss cryostat. Sections were mounted onto glass slides and stained with Phoenix Blue (Thermo Scientific, Waltham, Mass.). […] Ventricular sizes were quantified using Sigma Scan Pro Image Analysis Version 5.0.0 (SPSS Inc., Chicago, Ill.). The ventricular area, outlined by the Phoenix Blue staining, was measured and numerically integrated across the thickness of the slice. […]

Compound CCC(C)(C)/N=C(/NC#N)Nc1cccnc1 [P 1075, (E)-1-cyano-2-tert-pentyl-3-(pyridin-3-yl)guanidine] has an IC50 ([1]; Rattus norvegicus) of 100 nM.
In the case of CC(=O)N(O)[C@@H]1c2cc(C#N)ccc2OC(C)(C)[C@H]1O [Y26763, N-((3S,4R)-6-cyano-3-hydroxy-2,2-dimethylchroman-4-yl)-N-hydroxyacetamide], the IC50 ([1]; Rattus norvegicus) is reported as 200 nM.
For CC(O)(C(=O)Nc1ccc(S(=O)(=O)c2ccccc2)cc1)C(F)(F)F (stereo not drawn) [ZM26600, 3,3,3-trifluoro-2-hydroxy-2-methyl-N-(4-(phenylsulfonyl)phenyl) propanamide], the IC50 [1] was 2500 nM.
For CC1=NS(=O)(=O)c2cc(Cl)ccc2N1 [diazoxide, 7-chloro-3-methyl-4H-1,2,4-benzothiadiazine 1,1-dioxide], the “myelin basic protein-labeling (myelination)” value ([2]; chronic hypoxia P3-P12, 10 mg/kg i.p. daily) was “markedly improved”, the “ventricle size (ventriculomegaly)” value ([2]; hypoxia 10% O2 P3-P12, 10 mg/kg i.p. daily, p<0.05 ANOVA vs hypoxia-vehicle) was “not enlarged” and the “myelin basic protein-labeling (myelination)” value ([2]; room air, 10 mg/kg i.p. daily) was “More myelin basic protein-labeling”. For the same compound, the EC50 ([1]; Rattus norvegicus, quoted in the cell toxicity study, read-out: observed EC50 value (pre-oligodendrocyte proliferation)) was 10 nM.
In the case of CC1(C)Oc2ccc(C#N)cc2[C@@H](N2CCCC2=O)[C@@H]1O [levcromakalim, (3S,4R)-3-hydroxy-2,2-dimethyl-4-(2-oxopyrrolidin-1-yl)chroman-6-carbonitrile], the IC50 ([1]; Rattus norvegicus) is reported as 2500 nM.
CC(N/C(=N\C#N)Nc1ccncc1)C(C)(C)C (stereo not drawn) [pinacidil, (E)-1-(3,3-dimethylbutan-2-yl)-2-cyano-3-(pyridin-4-yl)guanidine] gave an IC50 ([1]; Rattus norvegicus) of 10000 nM.
